The subject of one data set is Sindbis virus. Put plainly: Antiviral activity against Sindbis virus HRsp infected in African green monkey Vero cells assessed as reduction in virus induced cell death. Format: functional, organism-based.
For data set [1], the system named is Chikungunya virus. Put plainly: Antiviral activity against Chikungunya virus infected in African green monkey Vero cells assessed as reduction in viral induced cell death incubated for 5 days by MTS reagent based absorbance method. The class given is functional, organism-based. The conditions noted are these: 120 h.
In the next data set the test system is Enterovirus. Put plainly: Antiviral activity against Human enterovirus 71 infected in African green monkey Vero cells assessed as reduction in virus induced cell death. The class given is functional, organism-based.
The subject of a further data set is Zika virus. The data set can be described thus: Antiviral activity against Zika virus infected in African green monkey Vero cells assessed as reduction in virus induced cell death. Format: functional, organism-based.
Data set [2] in a line: Aqueous solubility of compound at pH 7.4 by HPLC analysis. The class given is physicochemical.
A further data set addresses hERG (KCNH2) (Homo sapiens, UniProt Q12809). The data set can be described thus: Inhibition of hERG in Xenopus laevis Oocytes upto 30 uM incubated for 10 mins by patch-clamp method relative to control. Format: cell-based, Oocyte. The conditions noted are these: Xenopus laevis oocytes expressing hERG.
Another data set deals with Semliki Forest virus. Put plainly: Antiviral activity against Semliki forest virus infected in African green monkey Vero cells assessed as reduction in virus induced cell death. Format: functional, organism-based.
The nature of data set [3]: Metabolic stability in human liver microsomes assessed as parent compound remaining preincubated for 5 mins followed by NADPH addition and measured upto 60 mins by HPLC-MS/MS analysis. Format: ADME, Microsome. The following applies: time < 65 min, read-out: Stability.
Data set [4] is described as follows: Cytotoxicity against African green monkey Vero cells assessed as reduction in overall metabolic activity incubated for 5 days by MTS reagent based absorbance method. Format: toxicity, cell-based. The conditions noted are these: chlorocebus sabaeus, time 5 day.
In data set [5] the test system is Caco-2. Put plainly: Cytotoxicity against human Caco-2 cells incubated for 24 to 72 hrs by MTT assay. The class given is toxicity, cell-based. The following applies: time 24-72 hrs.
The nature of data set [6]: Metabolic stability in human liver microsomes assessed as half-life preincubated for 5 mins followed by NADPH addition and measured upto 60 mins by HPLC-MS/MS analysis. Format: ADME, Microsome. The following applies: time < 65 min.
In data set [7] the test system is Caco-2. Put plainly: Induction of apoptosis in human Caco-2 cells assessed as increase in caspase-3 expression at 6.25 to 100 uM incubated for 72 hrs by Western blot analysis. The class given is toxicity, cell-based. The following applies: caco-2, 72 h, dose 6.25-100 µM.
The nature of data set [8]: Selectivity index, ratio of CC50 for cytotoxicity against African green monkey Vero cells to EC50 for antiviral activity against Chikungunya virus infected in African green monkey Vero cells assessed as reduction in viral induced cell death. Format: toxicity, cell-based. The following applies: read-out: Ratio CC50/EC50.
Data set [9] relates to Chikungunya virus. The data set can be described thus: Fold resistance , ratio of EC50 for antiviral activity against CHVB-resistant Chikungunya virus infected in African green monkey Vero cells to EC50 for antiviral activity against wildtype Chikungunya virus 899 infected in African green monkey Vero cells. The class given is functional.
The test system of data set [10] is Chikungunya virus. The data set can be described thus: Antiviral activity against Chikungunya virus 899 infected in African green monkey Vero cells assessed as reduction in viral RNA replication preincubated for 2 hrs with subsequent viral infected followed by media replacement with compound and measured after 48 hrs by qRT-PCR analysis. The conditions noted are these: dose 0.25-60 µM, time 50.0 hrs. The class given is functional, organism-based.

In data set [11] the test system is Caco-2. Put plainly: Induction of apoptosis in human Caco-2 cells assessed as increase in PARP expression at 6.25 to 100 uM incubated for 72 hrs by Western blot analysis. The class given is toxicity, cell-based. The conditions noted are these: caco-2, 72 h, dose 6.25-100 µM.

SMILES strings stand for the structures. In brackets after ≈: the same amount, converted by molar mass. Activity calls are given as the source filed them. The calls are words filed in the database; no cut-off is given here.

hERG (KCNH2), sequence (Q12809 whole entry): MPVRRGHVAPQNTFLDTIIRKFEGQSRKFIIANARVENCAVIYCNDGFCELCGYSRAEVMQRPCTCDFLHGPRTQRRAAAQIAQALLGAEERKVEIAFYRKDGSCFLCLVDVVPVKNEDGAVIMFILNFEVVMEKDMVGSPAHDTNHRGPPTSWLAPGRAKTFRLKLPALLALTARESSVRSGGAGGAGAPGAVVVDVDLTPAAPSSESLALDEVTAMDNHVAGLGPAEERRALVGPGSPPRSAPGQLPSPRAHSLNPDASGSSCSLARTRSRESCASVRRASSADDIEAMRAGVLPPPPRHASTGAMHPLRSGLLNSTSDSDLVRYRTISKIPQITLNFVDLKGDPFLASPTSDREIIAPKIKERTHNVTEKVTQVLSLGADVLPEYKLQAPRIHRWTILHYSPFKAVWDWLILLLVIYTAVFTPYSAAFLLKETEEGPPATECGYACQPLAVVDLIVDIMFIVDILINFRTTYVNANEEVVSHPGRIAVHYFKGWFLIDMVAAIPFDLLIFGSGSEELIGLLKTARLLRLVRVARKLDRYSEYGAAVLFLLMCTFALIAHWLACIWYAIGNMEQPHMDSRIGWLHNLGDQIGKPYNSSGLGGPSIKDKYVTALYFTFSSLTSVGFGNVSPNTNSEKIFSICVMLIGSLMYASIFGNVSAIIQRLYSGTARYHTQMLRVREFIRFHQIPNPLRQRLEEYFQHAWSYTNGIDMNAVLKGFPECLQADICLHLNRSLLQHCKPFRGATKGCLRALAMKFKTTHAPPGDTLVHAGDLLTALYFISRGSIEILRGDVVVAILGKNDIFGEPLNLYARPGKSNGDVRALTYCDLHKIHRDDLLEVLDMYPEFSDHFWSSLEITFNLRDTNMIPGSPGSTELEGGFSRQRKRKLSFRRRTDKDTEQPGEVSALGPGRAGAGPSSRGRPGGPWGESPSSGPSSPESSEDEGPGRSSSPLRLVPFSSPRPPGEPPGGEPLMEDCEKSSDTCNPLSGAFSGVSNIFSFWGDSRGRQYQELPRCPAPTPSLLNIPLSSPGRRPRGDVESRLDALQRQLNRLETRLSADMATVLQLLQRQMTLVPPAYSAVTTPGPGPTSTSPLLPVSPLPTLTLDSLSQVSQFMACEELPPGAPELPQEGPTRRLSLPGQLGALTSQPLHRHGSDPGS

Consider `O=S(=O)(c1ccc(F)cc1)N1CCN(c2ncccn2)CC1`, for which the outcome in the data set on Sindbis virus, with Enterovirus, in the data set with Zika virus and in the data set with Semliki Forest virus was inactive. In addition, the EC50 in the data set with Chikungunya virus [1] amounted to 310 µM. In data set [2], this compound returned a solubility of 64 µM (≈ 20.6 µg/mL). Moreover, at hERG (KCNH2), the inhibition at 10 min, up to 30 µM worked out at 9.63%.
On to `CCNc1nc(C)cc(N2CCN(C(=O)c3ccc([N+](=O)[O-])cc3)CC2)n1`, for which the remaining at 1 h in data set [3] is 100%. Further, the CC50 at 120 h in data set [4] was greater than 100 µM. In addition, the Activity entry in the data set on Caco-2 [5] is “Non-Toxic”; in the data set with Caco-2 [7] it was “Non-Toxic”; in the data set with Chikungunya virus [10] it was “Dose-Dependent Effect”; in the data set on Caco-2 [11] it was “Non-Toxic”. Besides, in [6], the half-life was greater than 60 min. The selectivity ratio in data set [8] was greater than 110. For the same compound, the 50% effective concentration (EC50) in the data set with Chikungunya virus [1] came to 0.91 µM. Further, the “Ratio EC50” value in the data set with Chikungunya virus [9] is recorded as 14. In data set [2], this compound displayed a solubility greater than 120 µM.

The values are drawn from ChEMBL document CHEMBL5537149, “Design, synthesis, and lead optimization of piperazinyl-pyrimidine analogues as potent small molecules targeting the viral capping machinery of Chikungunya virus” (Eur J Med Chem, 2024).
